Experimental data as given in article PMC12057336 (Antimicrobial Agents and Chemotherapy, 2025).

How the values were obtained:
[1] = rats; cited from earlier work
MATE2-K = details: cited from earlier work
OCT1 = details: cited from earlier work
human NTCP = target: T1, human NTCP (Homo sapiens, UniProt Q14973); assay: Uptake in NTCP-transfected HEK293 cells; details: 5 µM; 10 min; 37°C; vs mock cells
T1 sequence (Q14973 1-349): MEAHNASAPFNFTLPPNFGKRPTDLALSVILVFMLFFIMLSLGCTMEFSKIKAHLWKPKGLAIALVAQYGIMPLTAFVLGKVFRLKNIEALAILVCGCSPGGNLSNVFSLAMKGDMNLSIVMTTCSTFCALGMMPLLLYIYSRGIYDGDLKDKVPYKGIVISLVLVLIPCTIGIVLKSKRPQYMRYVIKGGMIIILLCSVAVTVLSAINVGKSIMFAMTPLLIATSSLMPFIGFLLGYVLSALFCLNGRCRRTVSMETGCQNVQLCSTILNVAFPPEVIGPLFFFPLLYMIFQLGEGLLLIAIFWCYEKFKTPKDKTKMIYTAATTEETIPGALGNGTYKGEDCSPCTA
Protocol: OATP1B1-, OATP1B3-, OATP2B1-, NTCP-, OAT1-, and OAT3-transfected HEK293 cells were cultured in DMEM supplemented with 10% FBS, 100 U/mL penicillin-streptomycin at 37°C with 95% relative humidity atmosphere containing 5% CO2. All cells were seeded in 24-well plates at a density of 4 × 10^5 cells/well and cultured for 1–2 days until they reached 80%–90% confluence. Prior to the initiation of uptake studies, the cells were washed twice with HBSS buffer at 37°C. Membrane vesicles were stored at −80°C and thawed at 37°C prior to the initiation of the studies.
All uptake tests were performed in triplicates. The activities of transporter-transfected HEK293 cells were evaluated using relevant positive substrates and inhibitors. E17G (5 µM, OATP1B1 and OATP1B3), ES (2 µM, OATP2B1), ES (5 µM, OAT3), TCA (10 µM, NTCP), and PAH (20 µM, OAT1) were used as substrates of the transporters. The inhibitors for each transporter were rifampicin (200 µM, OATP1B1 and OATP1B3), erlotinib (10 µM, OATP2B1), CsA (20 µM, NTCP), and probenecid (200 µM, OAT1 and OAT3).
The cells were washed three times with ice-cold HBSS buffer. […] The total protein concentration was measured using a BCA Protein Assay Kit. The uptake rates of HEK293-OATP1B1, HEK293-OATP1B3, HEK293-OATP2B1, HEK293-NTCP, HEK293-OAT1, HEK293-OAT3, and mock cells were calculated. […]

OAT3 = details: cited from earlier work
MATE1 = details: cited from earlier work

SMILES: CC(=O)NC[C@H]1CN(c2ccc(N3CCOCC3)c(F)c2)C(=O)O1 [Linezolid]
- mean recovery of linezolid radioactivity in excreta [1]: over 95%
- substrate for MATE2-K (MATE2-K): not a substrate
- inhibitor of OCT1 (OCT1): not an inhibitor
- substrate for NTCP (human NTCP): not a substrate
- inhibitor of OAT3 (OAT3): inhibitor
- substrate for MATE1 (MATE1): not a substrate
